We go through 31 molecules from ChEMBL document CHEMBL3879907, “8-azabicyclo[3.2.1]octane compounds as mu opioid receptor antagonists” (2014).

Molecules are shown by their SMILES. A value given as a limit tells only on which side of the number the result lay.

Assay [1] has as its target Kappa-type opioid receptor (Cavia porcellus, UniProt P41144). Nature of the assay: Displacement of [3H]-diprenorphine from guinea pig kappa opioid receptor expressed in CHOK1 cell membranes. Conditions: cho-k1.
Assay [2] deals with Mu-type opioid receptor (Homo sapiens) (UniProt P35372). Nature of the assay: Intrinsic activity at human mu opioid receptor expressed in CHOK1 cell membranes at 0.00001 to 20 uM after 30 mins by GTP-Eu nucleotide exchange assay relative to DAMGO. As to conditions: CHO-K1. The class given is functional.
Chain of Mu-type opioid receptor (Homo sapiens) (P35372 whole entry): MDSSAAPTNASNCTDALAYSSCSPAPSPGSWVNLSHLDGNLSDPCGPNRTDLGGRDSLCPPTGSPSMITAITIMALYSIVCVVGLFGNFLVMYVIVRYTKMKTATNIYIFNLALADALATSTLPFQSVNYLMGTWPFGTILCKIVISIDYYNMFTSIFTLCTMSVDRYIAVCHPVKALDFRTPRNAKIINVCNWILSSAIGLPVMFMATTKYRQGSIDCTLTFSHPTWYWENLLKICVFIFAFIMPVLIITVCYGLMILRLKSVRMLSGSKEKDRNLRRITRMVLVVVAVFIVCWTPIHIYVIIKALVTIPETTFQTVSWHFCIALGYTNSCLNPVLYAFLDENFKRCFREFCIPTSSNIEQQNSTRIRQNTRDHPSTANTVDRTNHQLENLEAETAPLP
For assay [3], the target named is Delta-type opioid receptor (Homo sapiens, UniProt P41143). Nature of the assay: Displacement of [3H]-diprenorphine from human delta opioid receptor expressed in cell membranes.
Chain of Delta-type opioid receptor (P41143 whole entry): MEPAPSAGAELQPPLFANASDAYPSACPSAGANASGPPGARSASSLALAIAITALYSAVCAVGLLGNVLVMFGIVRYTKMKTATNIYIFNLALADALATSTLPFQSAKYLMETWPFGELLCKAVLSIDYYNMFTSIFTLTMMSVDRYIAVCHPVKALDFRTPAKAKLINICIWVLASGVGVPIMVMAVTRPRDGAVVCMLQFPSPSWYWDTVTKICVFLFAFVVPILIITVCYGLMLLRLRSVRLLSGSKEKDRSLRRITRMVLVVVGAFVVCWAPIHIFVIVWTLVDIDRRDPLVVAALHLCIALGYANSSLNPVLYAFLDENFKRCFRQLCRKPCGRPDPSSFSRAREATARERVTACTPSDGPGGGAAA

Chain of Kappa-type opioid receptor (P41144 whole entry): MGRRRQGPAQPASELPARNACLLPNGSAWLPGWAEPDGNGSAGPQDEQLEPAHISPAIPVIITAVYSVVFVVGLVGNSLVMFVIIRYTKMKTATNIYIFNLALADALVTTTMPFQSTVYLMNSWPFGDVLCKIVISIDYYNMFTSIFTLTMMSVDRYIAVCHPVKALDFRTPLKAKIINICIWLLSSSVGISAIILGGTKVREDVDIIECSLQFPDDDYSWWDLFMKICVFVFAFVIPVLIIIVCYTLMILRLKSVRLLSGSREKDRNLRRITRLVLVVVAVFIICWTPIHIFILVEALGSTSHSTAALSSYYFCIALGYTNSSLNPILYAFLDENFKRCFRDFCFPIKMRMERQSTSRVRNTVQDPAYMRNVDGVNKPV

On to `NC(=O)c1cccc([C@H]2C[C@H]3CC[C@@H](C2)N3CCCN(Cc2ccccc2)C(=O)[C@@H](O)CO)c1.O=C(O)C(F)(F)F`, for which the pKi in assay [1] and in assay [3] was 7 to 10.5 in each case. In assay [2], this molecule displayed an Intrinsic activity below 40%.
In the case of `COCC(=O)N(CCN1[C@@H]2CC[C@H]1C[C@@H](c1cccc(C(N)=O)c1)C2)Cc1ccccc1.O=C(O)C(F)(F)F`, the pKi in assay [1] and in assay [3] was 7 to 10.5 each time. This molecule also displayed an Intrinsic activity in assay [2] below 40%.
For `O=C(O)CS(=O)(=O)CC(=O)N(CCN1[C@@H]2CC[C@H]1C[C@@H](c1cccc(O)c1)C2)CC1CCCCC1`, the pKi in assay [1] and in assay [3] was 7 to 10.5 each time. In addition, the Intrinsic activity in assay [2] was below 40%.
As to `CN(C)S(=O)(=O)N(CCN1[C@@H]2CC[C@H]1C[C@@H](c1cccc(C(N)=O)c1)C2)Cc1c(F)cccc1F.O=C(O)C(F)(F)F`, the pKi in assay [1] and in assay [3] was 7 to 10.5 throughout. In addition, the Intrinsic activity in assay [2] is below 40%.
Turning to `CC(C)C[C@H](O)C(=O)N(CCN1[C@@H]2CC[C@H]1C[C@@H](c1cccc(O)c1)C2)CC1CCCCC1`, the pKi in assay [1] and in assay [3] was 7 to 10.5 throughout. Moreover, the Intrinsic activity in assay [2] was below 40%.
In the case of `C[C@H](CN1[C@@H]2CC[C@H]1C[C@@H](c1cccc(O)c1)C2)N(Cc1ccccc1)C(=O)C1CCCCC1`, the pKi in assay [1] and in assay [3] was 7 to 10.5 throughout. In assay [2], this molecule returned an Intrinsic activity below 40%.
Consider `NC(=O)c1cccc([C@H]2C[C@H]3CC[C@@H](C2)N3CCN(CC2CCCCC2)C(=O)NCc2ccc(F)cc2)c1`, for which the pKi in assay [1] and in assay [3] was 7 to 10.5 each time. The molecule also gave an Intrinsic activity in assay [2] below 40%.
On to `NC(=O)c1cccc([C@H]2C[C@H]3CC[C@@H](C2)N3CCN(Cc2c(F)cccc2F)C(=O)[C@H](O)CO)c1.O=C(O)C(F)(F)F`, for which the pKi in assay [1] and in assay [3] was 7 to 10.5 each time. This molecule also yielded an Intrinsic activity in assay [2] below 40%.
Take `O=C(Nc1cccc(F)c1)N(CCN1[C@@H]2CC[C@H]1C[C@@H](c1cccc(O)c1)C2)CC1CCCCC1`: the pKi in assay [1] and in assay [3] was 7 to 10.5 throughout. The molecule further gave an Intrinsic activity in assay [2] below 40%.
In the case of `CC(C)C[C@H](O)C(=O)N(CCN1[C@@H]2CC[C@H]1C[C@@H](c1cccc(C(N)=O)c1)C2)CC1CCCCC1`, the pKi in assay [1] and in assay [3] was 7 to 10.5 in each case. In assay [2], this molecule gave an Intrinsic activity below 40%.
On to `CN[C@@H](CO)C(=O)N(CCN1[C@@H]2CC[C@H]1C[C@@H](c1cccc(C(N)=O)c1)C2)CC1CCCCC1.O=C(O)C(F)(F)F.O=C(O)C(F)(F)F`, for which the pKi in assay [1] and in assay [3] was 7 to 10.5 each time. The Intrinsic activity in assay [2] was below 40%.
For the molecule `CS(=O)(=O)CC(=O)N(CCc1ccc(F)cc1)CCN1[C@@H]2CC[C@H]1C[C@@H](c1cccc(C(N)=O)c1)C2.O=C(O)C(F)(F)F`, the pKi in assay [1] and in assay [3] was 7 to 10.5 in each case. For the same molecule, in assay [2], the Intrinsic activity was below 40%.
Take `CN(C)[C@@H](Cc1ccccc1)C(=O)N(CCN1[C@@H]2CC[C@H]1C[C@@H](c1cccc(C(N)=O)c1)C2)CC1CCCCC1`: the pKi in assay [1] and in assay [3] was 7 to 10.5 in each case. The molecule also returned an Intrinsic activity in assay [2] below 40%.
`O=C(O)CCC(=O)N(CCN1[C@@H]2CC[C@H]1C[C@@H](c1cccc(O)c1)C2)Cc1ccccc1`: the negative logarithm of the Ki (pKi) in assay [1] and in assay [3] was 7 to 10.5 throughout. Also, the Intrinsic activity in assay [2] was below 40%.
In the case of `N#CCC(=O)N(CCN1[C@@H]2CC[C@H]1C[C@@H](c1cccc(C(N)=O)c1)C2)Cc1c(F)cccc1F.O=C(O)C(F)(F)F`, the pKi in assay [1] and in assay [3] was 7 to 10.5 throughout. The Intrinsic activity in assay [2] was below 40%.
For the molecule `CC(=O)N(Cc1ccccc1)[C@H](C)CN1[C@@H]2CC[C@H]1C[C@@H](c1cccc(O)c1)C2`, the pKi in assay [1] and in assay [3] was 7 to 10.5 each time. In addition, in assay [2], the Intrinsic activity is below 40%.
As to `O=C([C@@H](O)C1CCCCC1)N(CCN1[C@@H]2CC[C@H]1C[C@@H](c1cccc(O)c1)C2)CC1CCCCC1`, the pKi in assay [1] and in assay [3] was 7 to 10.5 throughout. In addition, the Intrinsic activity in assay [2] is below 40%.
With `CC(=O)N(CCN1[C@@H]2CC[C@H]1C[C@@H](c1cccc(O)c1)C2)CC1CCCCC1`, the pKi in assay [1] and in assay [3] was 7 to 10.5 throughout. The same molecule showed an Intrinsic activity in assay [2] below 40%.
For the molecule `C[C@H](CN1[C@@H]2CC[C@H]1C[C@@H](c1cccc(O)c1)C2)N(Cc1ccccc1)C(=O)CC1CCCC1`, the pKi in assay [1] and in assay [3] was 7 to 10.5 in each case. Further, the Intrinsic activity in assay [2] is below 40%.
With `CS(=O)(=O)CC(=O)N(CCN1[C@@H]2CC[C@H]1C[C@@H](c1cccc(C(N)=O)c1)C2)Cc1c(F)cccc1F`, the pKi in assay [1] and in assay [3] was 7 to 10.5 throughout. Moreover, the Intrinsic activity in assay [2] was below 40%.
As for `CS(=O)(=O)CC(=O)N(CCCN1[C@@H]2CC[C@H]1C[C@@H](c1cccc(C(N)=O)c1)C2)Cc1ccccc1.O=C(O)C(F)(F)F`, the pKi in assay [1] and in assay [3] was 7 to 10.5 throughout. Further, the Intrinsic activity in assay [2] was below 40%.
With `NC(=O)c1cccc([C@H]2C[C@H]3CC[C@@H](C2)N3CCN(Cc2cccc(F)c2)C(=O)CO)c1.O=C(O)C(F)(F)F`, the pKi in assay [1] and in assay [3] was 7 to 10.5 in each case. The same molecule showed an Intrinsic activity in assay [2] below 40%.
Take `NC(=O)c1cccc([C@H]2C[C@H]3CC[C@@H](C2)N3CCN(CC2CCCC2)C(=O)CO)c1.O=C(O)C(F)(F)F`: the pKi in assay [1] and in assay [3] was 7 to 10.5 throughout. This molecule had an Intrinsic activity in assay [2] below 40%.
As for `CCCCCNC(=O)N(CCN1[C@@H]2CC[C@H]1C[C@@H](c1cccc(O)c1)C2)CC1CCCCC1`, the pKi in assay [1] and in assay [3] was 7 to 10.5 in each case. In addition, in assay [2], the Intrinsic activity was below 40%.
For the molecule `COc1ccc(NC(=O)N(CCN2[C@@H]3CC[C@H]2C[C@@H](c2cccc(O)c2)C3)CC2CCCCC2)cc1OC`, the pKi in assay [1] and in assay [3] was 7 to 10.5 in each case. In assay [2], this molecule returned an Intrinsic activity below 40%.
Regarding `O=C([C@H](O)C1CCCCC1)N(CCN1[C@@H]2CC[C@H]1C[C@@H](c1cccc(O)c1)C2)CC1CCCCC1`, the pKi in assay [1] and in assay [3] was 7 to 10.5 throughout. In assay [2], this molecule showed an Intrinsic activity below 40%.
For the molecule `CCC(CC)C(=O)N(CCN1[C@@H]2CC[C@H]1C[C@@H](c1cccc(O)c1)C2)Cc1ccccc1`, the pKi in assay [1] and in assay [3] was 7 to 10.5 in each case. The molecule further had an Intrinsic activity in assay [2] below 40%.
`CS(=O)(=O)CC(=O)N(CCN1[C@@H]2CC[C@H]1C[C@@H](c1cccc(C(N)=O)c1)C2)CC1CCC1.O=C(O)C(F)(F)F`: the pKi in assay [1] and in assay [3] was 7 to 10.5 each time. This molecule registered an Intrinsic activity in assay [2] below 40%.
In the case of `NC(=O)c1cccc([C@H]2C[C@H]3CC[C@@H](C2)N3CCN(CC2CCC(F)(F)CC2)C(=O)[C@H](O)CO)c1.O=C(O)C(F)(F)F`, the pKi in assay [1] and in assay [3] was 7 to 10.5 in each case. Further, the Intrinsic activity in assay [2] is below 40%.
For the molecule `C[C@H](CN1[C@@H]2CC[C@H]1C[C@@H](c1cccc(O)c1)C2)N(Cc1ccccc1)C(=O)C1CCCC1`, the pKi in assay [1] and in assay [3] was 7 to 10.5 in each case. For the same molecule, the Intrinsic activity in assay [2] was below 40%.
For the molecule `NC(=O)c1cccc([C@H]2C[C@H]3CC[C@@H](C2)N3CCN(CC2CCCCC2)C(=O)Nc2ccc3c(c2)OCO3)c1`, the negative logarithm of the Ki (pKi) in assay [1] and in assay [3] was 7 to 10.5 each time. This molecule also registered an Intrinsic activity in assay [2] below 40%.

Usually pKi stands for the negative decadic logarithm of the Ki, by convention in mol/L. A low value points to a large Ki.
